Experimental data from patent US20230212180A1, “SUBSTITUTED PYRAZINE COMPOUND, PHARMACEUTICAL COMPOSITION COMPRISING SAME, AND USE THEREOF” (Sichuan Kelun-Biotech Biopharmaceutical Co., Ltd., priority 2020, published 2023).

Assays:
[1] = biological target: T1, recombinant full-length human PTPN11 (SHP2) (Homo sapiens, UniProt Q06124); assay: Inhibition of in vitro enzyme activity of SHP2 (DiFMUP fluorescence endpoint assay); type: biochemical; settings: SHP2 0.5 nM, DiFMUP 200 μM, IRS-1 0.5 μM; 60 min incubation
T1 construct: recombinant full-length human PTPN11 (SHP2), active (SignalChem); purchased SignalChem
T1 sequence (Q06124 1-593): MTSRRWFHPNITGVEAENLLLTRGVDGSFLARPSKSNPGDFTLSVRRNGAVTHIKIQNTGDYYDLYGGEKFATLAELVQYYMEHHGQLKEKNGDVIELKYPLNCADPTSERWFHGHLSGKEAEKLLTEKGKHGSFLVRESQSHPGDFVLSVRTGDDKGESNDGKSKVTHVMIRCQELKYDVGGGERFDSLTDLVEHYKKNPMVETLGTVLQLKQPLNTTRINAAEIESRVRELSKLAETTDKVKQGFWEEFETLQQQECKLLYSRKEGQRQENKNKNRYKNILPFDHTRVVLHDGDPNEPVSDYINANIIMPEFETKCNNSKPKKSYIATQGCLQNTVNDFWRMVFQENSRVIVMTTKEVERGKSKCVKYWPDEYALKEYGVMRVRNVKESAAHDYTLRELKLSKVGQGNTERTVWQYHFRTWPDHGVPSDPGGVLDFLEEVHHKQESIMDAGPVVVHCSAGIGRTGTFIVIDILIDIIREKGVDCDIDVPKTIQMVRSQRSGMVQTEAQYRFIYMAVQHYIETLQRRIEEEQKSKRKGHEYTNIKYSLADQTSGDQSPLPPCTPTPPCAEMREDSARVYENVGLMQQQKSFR
Procedure: Test Example 1: Experiment on the Inhibition of In Vitro Enzyme Activity of SHP2 (Protein Phosphatase)
phosphatase: recombinant full-length human PTPN11 (SHP2), active (SignalChem);
substrate: 6,8-difluoro-4-methylumbelliferyl phosphate (DiFMUP) (Invitrogen);
activating peptide: IRS1_pY1172(dPEG8)pY1222 (IRS1) (BPS Bioscience);
terminator: bpv(phen) (bpv) (Abcam).
SHP2 concentration: 0.5 nM;
DiFMUP concentration: 200 μM;
IRS-1 concentration: 0.5 μM;
bpv concentration: 160 μM;
buffer systems: 60 mM Hepes pH 7.2; 75 mM NaCl; 75 mM KCl; 0.05% surfactant P20; 1 mM EDTA; 5 mM DTT;
incubation duration of compound and enzyme: 60 minutes;
reaction time of enzyme and substrate: 30 minutes;
parameters for microplate reader: BMG PHERAstar fluorescence microplate reader at an excitation wavelength of 340 nm and an emission wavelength of 450 nm.
Test group: A mixture of the test compound and the phosphatase SHP2 together with the activating peptide IRS-1 were incubated in the buffer system at room temperature for 60 minutes. The substrate DiFMUP was added to initiate the reaction and incubated at room temperature for 30 minutes. Thereafter, bpv was added to terminate the reaction. The reaction plate was placed in the microplate reader, and the fluorescence intensities of the wells in the plate were measured using an endpoint assay.
Negative group: The experimental method for the negative group was the same as that for the test group, except that the test compound was substituted with 0.05% aqueous solution of DMSO.
Blank group: The experimental method for the blank group was the same as that for the test group, except that the test compound was substituted with 0.05% aqueous solution of DMSO and that SHP2 was not added.
The relative inhibitory activity was calculated for the test group at each concentration based on the following equation: inhibition rate (%)=100%−(the fluorescence intensity of the test group−the fluorescence intensity of the blank group)/(the fluorescence intensity of the negative group−the fluorescence intensity of the blank group)×100%. The half maximal inhibitory concentration (IC50) of the compound was calculated by fitting the curve according to the four-parameter logistic model.

[2] = tested on: KYSE-520 cell (human esophageal squamous cell carcinoma cell); assay: Inhibition of the proliferation activity of KYSE-520 cell (CellTiter-Glo); type: cell-based; settings: 120 h, KYSE-520 cell proliferation, 5 days
Procedure: Test Example 2: Experiment on the Inhibition of the Proliferation Activity of KYSE-520 Cell (Human Esophageal Squamous Cell Carcinoma Cell)
cell: KYSE-520 (JCRB Cell Bank);
(§1) kit: CellTiter-Glo® Luminescent Cell Viability Assay Kit (Promega).
(§2) inoculation amount of cell: 1500 cells/well;
incubation conditions for compound: 37° C., 5% CO2;
(§3) incubation duration: 5 days;
(§4) detecting temperature: room temperature;
(§5) chemiluminescence detection using the BMG PHERAstar FS reader.
(§6) Cells were cultured in a medium containing 10% fetal bovine serum under the culture conditions of 37° C. and 5% CO2. An appropriate amount of cells were plated into a 96-well plate and cultured overnight in an incubator to allow the cells to adhere to the wall. The following day, the medium was removed and a complete medium containing a pre-diluted compound was added and incubated at 37° C. for 5 days. On the fifth day, the detection reagent CellTiter-Glo® was added into each well. Chemiluminescence was adopted to detect the relative luminescence units (RLUs) of the wells.
(§7) The result of a well containing cell-free medium, treated with CellTiter-Glo®, was obtained as the blank value. Cell viability (%)=(sample RLU−blank RLU)/(vehicle RLU−blank RLU)×100%, and maximum inhibition rate (%)=100%−cell viabilitymax. conc. (%). The half maximal inhibitory concentration (IC50) of the compound was calculated by fitting the curve according to the four-parameter logistic model.

[3] = tested on: NCI-H358 cell (human non-small cell lung cancer cell); assay: Inhibition of the proliferation activity of NCI-H358 cell (CellTiter-Glo); type: cell-based; settings: 120 h, 5 days
Procedure: Test Example 4: Experiment on the Inhibition of the Proliferation Activity of NCI-H358 Cell (Human Non-Small Cell Lung Cancer Cell)
cell: NCI-H358 (Nanjing CoBioer);
as §1, §2
incubation conditions for compounds: 37° C., 5% CO2;
as §3, §4, §5, §6, §7

IC50 [1] | IC50 [2] | IC50 [3] | Compound
9.3 nM | – | – | C[C@@H]1OCC2(CCN(c3ncc(Sc4ccc(N5CC(C(C)(C)O)C5)nc4Cl)nc3CO)CC2)[C@@H]1N [Example 11, 2-(1-(5-(5-((3S,4S)-4-amino-3-methyl-2-oxa-8-azaspiro[4.5]decan-8-yl)-6-(hydroxymethyl)pyrazin-2-ylthio)-6-chloropyridin-2-yl)azetidin-3-yl)propan-2-ol]
1 nM | 40 nM | – | C[C@@H]1OCC2(CCN(c3ncc(Sc4ccnc(N5CC(CF)C5)c4Cl)nc3CO)CC2)[C@@H]1N [Example 16, (3-((3S,4S)-4-amino-3-methyl-2-oxa-8-azaspiro[4.5]decan-8-yl)-6-(3-chloro-2-(3-(fluoromethyl)azetidin-1-yl)pyridin-4-ylthio)pyrazin-2-yl)methanol]
6.9 nM | – | – | CC(C)(O)C1CN(c2nccc(Sc3cnc(N4CCC5(CC4)Oc4ccc(F)cc4[C@H]5N)c(CO)n3)c2Cl)C1 [Example 20, (R)-2-(1-(4-(5-(3-amino-5-fluoro-3H-spiro[benzofuran-2,4′-piperidin]-1′-yl)-6-(hydroxymethyl)pyrazin-2-ylthio)-3-chloropyridin-2-yl)azetidin-3-yl)propan-2-ol]
3.7 nM | – | – | Cc1nc(N2CCC3(CC2)CO[C@@H](C)[C@H]3N)c(CO)nc1Sc1ccnc(N2CC(C(C)(C)O)C2)c1Cl [Example 32, 2-(1-(4-(5-((3S,4S)-4-amino-3-methyl-2-oxa-8-azaspiro[4.5]decan-8-yl)-6-(hydroxymethyl)-3-methylpyrazin-2-ylthio)-3-chloropyridin-2-yl)azetidin-3-yl)propan-2-ol]
5.3 nM | – | – | C[C@@H]1OCC2(CCN(c3cnc(Sc4ccnc(N5CC(CS(C)(=O)=O)C5)c4Cl)c(N)n3)CC2)[C@@H]1N [Example 38, (3S,4S)-8-(6-amino-5-(3-chloro-2-(3-(methylsulfonylmethyl)azetidin-1-yl)pyridin-4-ylthio)pyrazin-2-yl)-3-methyl-2-oxa-8-azaspiro[4.5]decan-4-amine]
8.4 nM | – | – | CC(C)(O)C1CN(c2nccc(Sc3cnc(N4CCC5(CC4)Oc4ccc(F)cc4[C@H]5N)cn3)c2Cl)C1 [Example 41, (R)-2-(1-(4-(5-(3-amino-5-fluoro-3H-spiro[benzofuran-2,4′-piperidin]-1′-yl)pyrazin-2-ylthio)-3-chloropyridin-2-yl)azetidin-3-yl)propan-2-ol]
2.49 nM | 50 nM | 50 nM | CC(C)(O)C1CN(c2nccc(Sc3cnc(N4CCC5(CC4)Oc4ncccc4[C@H]5N)c(CO)n3)c2Cl)C1 [Example 44, (R)-2-(1-(4-(5-(3-amino-3H-spiro[furo[2,3-b]pyridine-2,4′-piperidin]-1′-yl)-6-(hydroxymethyl)pyrazin-2-ylthio)-3-chloropyridin-2-yl)azetidin-3-yl)propan-2-ol]
2.3 nM | 270 nM | – | CC(C)(O)C1CN(c2nccc(Sc3cnc(N4CCC5(CC4)CCC4(CC4)[C@H]5N)c(CO)n3)c2Cl)C1 [Example 49, 2-(1-(4-(5-(4-amino-8-azadispiro[2.1.5.2]dodecan-8-yl)-6-(hydroxymethyl)pyrazin-2-ylthio)-3-chloropyridin-2-yl)azetidin-3-yl)propan-2-ol]
4.84 nM | – | – | Cc1nc(N2CCC3(CC2)Cc2ncccc2[C@H]3N)c(CO)nc1Sc1ccnc(N2CC(C(C)(C)O)C2)c1Cl [Example 50, (S)-2-(1-(4-(5-(5-amino-5,7-dihydrospiro[cyclopenta[b]pyridine-6,4′-piperidin]-1′-yl)-6-(hydroxymethyl)-3-methylpyrazin-2-ylthio)-3-chloropyridin-2-yl)azetidin-3-yl)propan-2-ol]

The next lines start with the compound.

Compound | IC50 [1] | IC50 [2] | IC50 [3]
CC(N)C1(C)CCN(c2ncc(Sc3ccnc(N4CCCC4CO)c3Cl)nc2CO)CC1 (stereo not drawn) [Example 3] | 3.48 nM | 1140 nM | –
C[C@@H]1OCC2(CCN(c3ncc(Sc4ccnc(N5CCC(CO)C5)c4Cl)nc3CO)CC2)[C@@H]1N (stereo partly drawn) [Example 8, (3-((3S,4S)-4-amino-3-methyl-2-oxa-8-azaspiro[4.5]decan-8-yl)-6-(3-chloro-2-(3-(hydroxymethyl)pyrrolidin-1-yl)pyridin-4-ylthio)pyrazin-2-yl)methanol] | 0.88 nM | 30 nM | –
C[C@@H]1OCC2(CCN(c3ncc(Sc4ccnc(N5CCC(CC#N)C5)c4Cl)nc3CO)CC2)[C@@H]1N (stereo partly drawn) [Example 10, 2-(1-(4-(5-((3S,4S)-4-amino-3-methyl-2-oxa-8-azaspiro[4.5]decan-8-yl)-6-(hydroxymethyl)pyrazin-2-ylthio)-3-chloropyridin-2-yl)pyrrolidin-3-yl)acetonitrile] | 1.22 nM | 40 nM | –
COCC1(C)CN(c2nccc(Sc3cnc(N4CCC5(CC4)CO[C@@H](C)[C@H]5N)c(CO)n3)c2Cl)C1 [Example 33, (3-((3S,4S)-4-amino-3-methyl-2-oxa-8-azaspiro[4.5]decan-8-yl)-6-(3-chloro-2-(3-(methoxymethyl)-3-methylazetidin-1-yl)pyridin-4-ylthio)pyrazin-2-yl)methanol] | 4.1 nM | 90 nM | –
C[C@@H]1OCC2(CCN(c3cnc(Sc4ccnc(N5CCCC5CO)c4Cl)c(N)n3)CC2)[C@@H]1N (stereo partly drawn) [Example 37, (1-(4-(3-amino-5-((3S,4S)-4-amino-3-methyl-2-oxa-8-azaspiro[4.5]decan-8-yl)pyrazin-2-ylthio)-3-chloropyridin-2-yl)pyrrolidin-2-yl)methanol] | 2.4 nM | – | –
CC(C)(O)C1CN(c2nccc(Sc3cnc(N4CCC5(CC4)Cc4ncccc4[C@H]5N)cn3)c2Cl)C1 [Example 45, (S)-2-(1-(4-(5-(5-amino-5,7-dihydrospiro[cyclopenta[b]pyridine-6,4′-piperidin]-1′-yl)pyrazin-2-ylthio)-3-chloropyridin-2-yl)azetidin-3-yl)propan-2-ol] | 4.1 nM | 210 nM | –
